Measured values: US20220225159A1, “PARENTERAL DELIVERY OF AVIZAFONE” (Sollievo Pharmaceuticals, Inc, priority 2020, published 2022)

Legend:
beagle dogs = assay: Time to onset of sedation after IM administration of AVF in a canine model; type: in vivo
[1] = Diazepam plasma PK after single-dose SQ administration of AVF to dogs (Example 1); settings: mean; single-dose SQ approx. 1.9 mg/kg avizafone; NCA
[2] = Diazepam plasma PK after single-dose IM administration of more concentrated AVF to dogs, Study 2 (Example 2); settings: for AUClast/D (diazepam) / Cmax/D (diazepam): N=6, 0.0952 mol/L AVF, NCA
[3] = Diazepam plasma PK after single-dose IM administration of AVF to dogs, Study 1 (Example 1)
[4] = geometric mean, N=6, Study 1, IM, NCA
[5] = mean, N=6, Study 1, IM, NCA, Table 5
[6] = pooled without and with niacin, IM vs SQ

For Avizafone, the “median time for onset of sedation” value (beagle dogs; Study 1, IM, less concentrated AVF formulations (mean 0.0300 mol/L)) was “greater than 45 minutes”, the “median time for onset of sedation” value (beagle dogs; Study 2, IM, more concentrated formulation (0.0952 mol/L)) was “approximately 10 minutes” and the “Cmax/D (diazepam)” value [1] was 264 (ng/mL)/(mg/kg). The “V/F (diazepam)” value [1] was 2.432 L/kg, the “shorter Tmax in Study 2 than in Study 1” value ([2]; 3-fold higher injection solution concentration, 3-fold smaller injection volume, IM) was 3 fold and the “mean K01 higher in Study 2 compared to Study 1” value ([2]; IM, Study 2 vs Study 1, compartment modeling) was 4.2 fold. The “mean K01 (input rate constant) for DZP” value ([2]; Study 2, IM, compartment modeling) was 0.9501 min⁻¹, the “AUClast/D (diazepam)” value ([2]; geometric mean, Study 2, IM) was 22101 (min*ng/mL)/(mg/kg) and the “Cmax/D (diazepam)” value ([2]; geometric mean, Study 2, IM) was 644 (ng/mL)/(mg/kg). The “AUClast/D (diazepam)” value ([2]; mean, Study 2, IM) was 22176 (min*ng/mL)/(mg/kg), the “Cmax/D (diazepam)” value ([2]; mean, Study 2, IM) was 656 (ng/mL)/(mg/kg) and the “AUClast/D (diazepam)” value ([2]; median, Study 2, IM) was 21903 (min*ng/mL)/(mg/kg). The “Cmax/D (diazepam)” value ([2]; median, Study 2, IM) was 605 (ng/mL)/(mg/kg), the “mean K01 (input rate constant) for DZP” value ([3]; Study 1, IM, compartment modeling) was 0.2289 min⁻¹ and the “AUClast/D (diazepam)” value [3, 4] was 22243 (min*ng/mL)/(mg/kg). For the same substance, the “Cmax/D (diazepam)” value [3, 4] was 650 (ng/mL)/(mg/kg), the “AUClast/D (diazepam)” value [3, 5] was 22637 (min*ng/mL)/(mg/kg) and the “Cmax/D (diazepam)” value [3, 5] was 702 (ng/mL)/(mg/kg). The “V/F (diazepam)” value ([3]; mean, single-dose IM approx. 1.6 to 1.8 mg/kg avizafone, NCA) was 1.435 L/kg, the “Cmax/D (diazepam)” value ([3]; mean, single-dose IM approx. 1.6 to 1.8 mg/kg avizafone, NCA, Table 2) was 397 (ng/mL)/(mg/kg) and the “AUClast/D (diazepam)” value ([3]; median, N=6, Study 1, IM, NCA) was 22225 (min*ng/mL)/(mg/kg). The “Cmax/D (diazepam)” value ([3]; median, N=6, Study 1, IM, NCA) was 574 (ng/mL)/(mg/kg), the “DZP AUClast/D higher following IM than following SQ administration” value [3, 6] was 1.43 fold and the “DZP Cmax/D higher following IM than following SQ administration” value [3, 6] was 1.50 fold.
